Source: ChEMBL document CHEMBL5126517, “Structure-Activity Relationship in the Leucettine Family of Kinase Inhibitors” (J Med Chem, 2022)

Experiments:
[1] = biological target: Dual specificity protein kinase CLK3 (Mus musculus, UniProt O35492); assay: Inhibition of GST-fused mouse recombinant CLK3 expressed in Escherichia coli using GRSRSRSRSRSR peptide as substrate incubated for 30 mins in presence of ATP by scintillation counting method
[2] = biological target: Dual specificity tyrosine-phosphorylation-regulated kinase 1A (Homo sapiens, UniProt Q13627); assay: Inhibition of GST-fused human recombinant DYRK1A expressed in Escherichia coli using GRSRSRSRSRSR peptide as substrate incubated for 30 mins in presence of ATP by scintillation counting method
[3] = biological target: Cannabinoid receptor 1 (Homo sapiens, UniProt P21554); assay: Antagonist activity at CP-55940-activated CB1 receptor (unknown origin) at 10 uM by beta-arrestin assay relative to control; assay type: functional; design: scale not given: the % may be the effect or the level left
[4] = biological target: Dual specificity tyrosine-phosphorylation-regulated kinase 1B (Homo sapiens, UniProt Q9Y463)
[5] = biological target: T1, Dual specificity tyrosine-phosphorylation-regulated kinase 3 (Homo sapiens, UniProt O43781); assay: Inhibition of GST-fused human recombinant DYRK3 expressed in Escherichia coli using GRSRSRSRSRSR peptide as substrate incubated for 30 mins in presence of ATP by scintillation counting method
T1 sequence (O43781 whole entry): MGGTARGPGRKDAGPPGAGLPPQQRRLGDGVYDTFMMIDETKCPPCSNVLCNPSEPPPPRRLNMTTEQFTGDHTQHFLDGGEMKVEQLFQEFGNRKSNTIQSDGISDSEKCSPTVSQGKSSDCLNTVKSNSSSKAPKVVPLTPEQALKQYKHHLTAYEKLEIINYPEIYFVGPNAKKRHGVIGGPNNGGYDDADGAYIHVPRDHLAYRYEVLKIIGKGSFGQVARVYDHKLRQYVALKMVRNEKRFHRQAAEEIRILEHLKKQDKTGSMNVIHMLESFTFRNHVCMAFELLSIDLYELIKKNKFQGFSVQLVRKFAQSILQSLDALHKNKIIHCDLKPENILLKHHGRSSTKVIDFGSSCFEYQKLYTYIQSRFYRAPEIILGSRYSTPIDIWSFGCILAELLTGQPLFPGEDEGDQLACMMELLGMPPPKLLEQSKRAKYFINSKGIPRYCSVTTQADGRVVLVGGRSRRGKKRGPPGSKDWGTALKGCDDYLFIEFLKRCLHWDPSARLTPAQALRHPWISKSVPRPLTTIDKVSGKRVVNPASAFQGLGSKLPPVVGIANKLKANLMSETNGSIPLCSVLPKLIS

[6] = tested on: U2OS; assay: Induction of PI3K/mTor-dependent autophagy in human U2OS cells assessed as number of LC3 foci per cell at 10 uM measured after 4 hrs; assay type: cell-based; conditions: filed as activator
[7] = biological target: T2, Dual specificity tyrosine-phosphorylation-regulated kinase 2 (Homo sapiens, UniProt Q92630); assay: Inhibition of GST-fused human recombinant DYRK2 expressed in Escherichia coli using GRSRSRSRSRSR peptide as substrate incubated for 30 mins in presence of ATP by scintillation counting method
T2 sequence (Q92630 whole entry): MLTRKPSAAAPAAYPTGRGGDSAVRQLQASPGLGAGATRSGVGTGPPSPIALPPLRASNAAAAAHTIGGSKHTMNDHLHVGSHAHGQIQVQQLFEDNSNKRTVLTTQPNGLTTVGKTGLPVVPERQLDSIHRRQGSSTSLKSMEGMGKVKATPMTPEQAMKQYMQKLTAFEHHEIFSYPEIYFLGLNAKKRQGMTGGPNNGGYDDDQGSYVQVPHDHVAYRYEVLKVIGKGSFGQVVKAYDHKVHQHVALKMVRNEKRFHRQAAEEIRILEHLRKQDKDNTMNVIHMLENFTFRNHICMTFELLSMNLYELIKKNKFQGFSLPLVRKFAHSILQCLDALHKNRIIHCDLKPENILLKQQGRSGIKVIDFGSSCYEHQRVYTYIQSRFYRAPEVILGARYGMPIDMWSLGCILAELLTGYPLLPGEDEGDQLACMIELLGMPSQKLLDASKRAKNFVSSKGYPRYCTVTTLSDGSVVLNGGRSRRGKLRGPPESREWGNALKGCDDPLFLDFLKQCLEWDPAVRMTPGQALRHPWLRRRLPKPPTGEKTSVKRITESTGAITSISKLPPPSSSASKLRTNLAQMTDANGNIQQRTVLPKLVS

[8] = biological target: Dual specificity protein kinase CLK4 (Mus musculus, UniProt O35493); assay: Inhibition of GST-fused mouse recombinant CLK4 expressed in Escherichia coli using GRSRSRSRSRSR peptide as substrate incubated for 30 mins in presence of ATP by scintillation counting method
[9] = biological target: Glycogen synthase kinase-3 (Sus scrofa, UniProt B2LUN4+I6LNT8); assay: Inhibition of porcine brain GSK-3alpha/beta using YRRAAVPPSPSLSRHSSPHQpSEDEEE as substrate incubated for 30 mins in presence of ATP by scintillation counting method; assay type: tissue-based
[10] = Neurotoxicity against mouse HT-22 cells assessed as cell survival at 20 uM treated for 24 hrs by MTS assay; assay type: toxicity, cell-based; conditions: ht-22, 24 h
[11] = biological target: Dual specificity protein kinase CLK1 (Mus musculus, UniProt P22518); assay: Inhibition of GST-fused mouse recombinant CLK1 expressed in Escherichia coli using GRSRSRSRSRSR peptide as substrate incubated for 30 mins in presence of ATP by scintillation counting method
[12] = biological target: Serine/threonine-protein kinase pim-1 (Homo sapiens, UniProt P11309); assay: Inhibition of human recombinant Pim1 expressed in Escherichia coli using histone H1 as substrate incubated for 30 mins in presence of ATP by scintillation counting method
[13] = tested on: HT-22; assay: Modulation of CLK1 pre-mRNA splicing in mouse HT-22 cells assessed as inclusion of CLK1 exon 4 by measuring change in threshold cycle at 10 uM measured after 4 hrs by real time PCR analysis; assay type: cell-based; conditions: filed as modulator
[14] = biological target: Casein kinase 2 (Homo sapiens, UniProt P67870+P68400+P19784+Q8NEV1); assay: Inhibition of human recombinant CK2 using RRRDDDSDDD peptide as substrate incubated for 30 mins in presence of ATP by scintillation counting method; assay type: protein assay
[15] = biological target: Dual specificity protein kinase CLK2 (Mus musculus, UniProt O35491); assay: Inhibition of mouse recombinant GST-fused CLK2 expressed in Escherichia coli using GRSRSRSRSRSR peptide as substrate incubated for 30 mins in presence of ATP by scintillation counting method
[16] = tested on: HT-22; assay: Neuroprotective activity against glutamate-induced cell death in mouse HT-22 cells treated for 24 hrs by MTS assay; assay type: functional, cell-based; conditions: HT-22, 24 h

Sequence of Dual specificity tyrosine-phosphorylation-regulated kinase 1B (Q9Y463 whole entry, the tested form may be a part): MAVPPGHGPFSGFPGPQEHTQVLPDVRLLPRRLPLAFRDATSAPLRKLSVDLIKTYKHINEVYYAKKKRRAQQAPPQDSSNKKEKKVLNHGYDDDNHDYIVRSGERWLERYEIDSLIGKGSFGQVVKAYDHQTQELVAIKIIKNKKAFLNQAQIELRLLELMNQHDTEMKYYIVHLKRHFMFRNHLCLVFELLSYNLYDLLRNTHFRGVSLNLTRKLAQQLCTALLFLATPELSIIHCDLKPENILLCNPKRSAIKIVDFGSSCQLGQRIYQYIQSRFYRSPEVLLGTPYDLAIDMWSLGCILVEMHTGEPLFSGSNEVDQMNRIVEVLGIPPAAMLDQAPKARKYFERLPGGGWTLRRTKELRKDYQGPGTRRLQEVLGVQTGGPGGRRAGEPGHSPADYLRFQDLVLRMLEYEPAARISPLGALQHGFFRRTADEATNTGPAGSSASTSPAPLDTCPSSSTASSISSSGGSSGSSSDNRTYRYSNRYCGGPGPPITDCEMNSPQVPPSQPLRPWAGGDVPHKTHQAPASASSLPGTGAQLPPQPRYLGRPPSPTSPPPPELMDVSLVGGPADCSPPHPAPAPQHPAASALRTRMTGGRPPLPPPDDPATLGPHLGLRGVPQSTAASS
Sequence of Dual specificity protein kinase CLK3 (O35492 whole entry, the tested form may be a part): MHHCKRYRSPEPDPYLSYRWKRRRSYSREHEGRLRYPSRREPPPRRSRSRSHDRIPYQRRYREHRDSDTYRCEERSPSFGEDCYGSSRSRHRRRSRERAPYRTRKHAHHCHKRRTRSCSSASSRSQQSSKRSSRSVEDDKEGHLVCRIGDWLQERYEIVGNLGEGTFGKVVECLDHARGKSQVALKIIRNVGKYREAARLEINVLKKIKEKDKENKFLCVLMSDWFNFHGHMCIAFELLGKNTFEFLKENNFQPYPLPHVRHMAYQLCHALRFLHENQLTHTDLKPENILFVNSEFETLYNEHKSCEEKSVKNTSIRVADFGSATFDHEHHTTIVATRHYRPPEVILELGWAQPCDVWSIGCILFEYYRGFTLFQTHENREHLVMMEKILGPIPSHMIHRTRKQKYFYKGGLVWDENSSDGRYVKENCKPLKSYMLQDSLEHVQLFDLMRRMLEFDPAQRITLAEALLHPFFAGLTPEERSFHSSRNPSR
Sequence of Dual specificity protein kinase CLK1 (P22518 whole entry, the tested form may be a part): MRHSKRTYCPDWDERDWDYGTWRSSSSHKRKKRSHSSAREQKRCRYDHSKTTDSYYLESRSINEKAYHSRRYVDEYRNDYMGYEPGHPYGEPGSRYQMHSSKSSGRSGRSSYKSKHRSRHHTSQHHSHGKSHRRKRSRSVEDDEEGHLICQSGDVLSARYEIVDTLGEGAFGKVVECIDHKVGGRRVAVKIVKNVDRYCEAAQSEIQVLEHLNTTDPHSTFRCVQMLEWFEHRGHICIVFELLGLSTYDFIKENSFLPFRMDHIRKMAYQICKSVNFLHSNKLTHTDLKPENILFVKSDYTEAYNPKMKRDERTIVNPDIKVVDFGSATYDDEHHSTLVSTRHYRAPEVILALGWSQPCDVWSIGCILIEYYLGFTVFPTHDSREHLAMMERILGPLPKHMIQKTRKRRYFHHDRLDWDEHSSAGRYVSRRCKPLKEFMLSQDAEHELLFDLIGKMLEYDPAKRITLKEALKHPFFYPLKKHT
Sequence of Dual specificity protein kinase CLK4 (O35493 whole entry, the tested form may be a part): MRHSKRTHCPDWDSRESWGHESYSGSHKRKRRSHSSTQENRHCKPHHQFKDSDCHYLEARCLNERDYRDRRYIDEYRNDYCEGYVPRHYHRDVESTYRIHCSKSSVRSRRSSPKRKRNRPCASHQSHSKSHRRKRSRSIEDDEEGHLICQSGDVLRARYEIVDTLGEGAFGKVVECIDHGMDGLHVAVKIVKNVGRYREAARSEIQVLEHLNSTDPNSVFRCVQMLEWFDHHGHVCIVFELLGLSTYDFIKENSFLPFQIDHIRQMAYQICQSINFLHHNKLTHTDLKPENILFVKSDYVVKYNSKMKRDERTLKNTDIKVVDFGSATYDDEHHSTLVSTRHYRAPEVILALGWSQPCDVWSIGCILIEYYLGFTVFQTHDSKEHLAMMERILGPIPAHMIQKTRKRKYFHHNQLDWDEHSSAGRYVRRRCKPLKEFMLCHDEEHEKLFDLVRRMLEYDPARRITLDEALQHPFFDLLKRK
Sequence of Dual specificity protein kinase CLK2 (O35491 whole entry, the tested form may be a part): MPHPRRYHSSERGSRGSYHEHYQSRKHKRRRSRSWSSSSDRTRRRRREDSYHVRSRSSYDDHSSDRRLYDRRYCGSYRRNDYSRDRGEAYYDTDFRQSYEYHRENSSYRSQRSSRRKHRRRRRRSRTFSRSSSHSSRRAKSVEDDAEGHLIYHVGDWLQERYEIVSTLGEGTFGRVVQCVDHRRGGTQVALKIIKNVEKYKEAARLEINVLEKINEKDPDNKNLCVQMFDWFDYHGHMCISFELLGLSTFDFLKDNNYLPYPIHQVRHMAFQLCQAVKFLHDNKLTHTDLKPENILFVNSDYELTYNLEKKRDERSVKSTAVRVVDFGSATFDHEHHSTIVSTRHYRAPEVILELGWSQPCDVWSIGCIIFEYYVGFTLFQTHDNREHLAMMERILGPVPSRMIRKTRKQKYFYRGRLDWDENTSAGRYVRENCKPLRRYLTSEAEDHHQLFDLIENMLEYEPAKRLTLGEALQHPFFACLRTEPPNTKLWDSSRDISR
Sequence of Cannabinoid receptor 1 (P21554 whole entry): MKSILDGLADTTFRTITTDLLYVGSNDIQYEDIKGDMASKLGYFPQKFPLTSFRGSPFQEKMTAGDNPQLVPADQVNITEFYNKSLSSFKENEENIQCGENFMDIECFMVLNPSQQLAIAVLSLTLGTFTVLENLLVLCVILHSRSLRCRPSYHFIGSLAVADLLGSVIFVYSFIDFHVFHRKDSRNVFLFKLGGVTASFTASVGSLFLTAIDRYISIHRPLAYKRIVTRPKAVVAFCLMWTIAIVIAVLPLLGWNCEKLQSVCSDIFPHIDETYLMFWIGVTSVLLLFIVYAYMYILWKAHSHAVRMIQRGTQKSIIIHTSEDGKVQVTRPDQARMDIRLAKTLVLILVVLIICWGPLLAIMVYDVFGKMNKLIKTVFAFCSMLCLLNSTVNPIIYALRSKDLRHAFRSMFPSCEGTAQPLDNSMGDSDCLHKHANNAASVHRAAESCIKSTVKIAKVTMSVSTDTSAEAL
Sequence of Serine/threonine-protein kinase pim-1 (P11309 whole entry): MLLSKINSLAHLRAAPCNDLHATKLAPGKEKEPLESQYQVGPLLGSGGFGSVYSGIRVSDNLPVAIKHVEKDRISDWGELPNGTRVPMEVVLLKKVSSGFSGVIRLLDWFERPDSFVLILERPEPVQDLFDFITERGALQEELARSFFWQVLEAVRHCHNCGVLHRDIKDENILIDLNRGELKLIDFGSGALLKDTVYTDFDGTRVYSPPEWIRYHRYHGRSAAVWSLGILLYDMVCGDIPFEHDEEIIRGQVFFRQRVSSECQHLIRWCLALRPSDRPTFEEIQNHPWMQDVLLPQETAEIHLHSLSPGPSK

SMILES	IC50 [1]	IC50 [2]	Activity [3]	IC50 [4]	IC50 [5]	Activity [6]	IC50 [7]	IC50 [8]	IC50 [9]	Activity [10]	IC50 [11]	IC50 [12]	deltaCT [13]	IC50 [14]	IC50 [15]	Activity ([3]; filed as antagonist)	EC50 [16]
O=C1NC(NC2CCNCC2)=N/C1=C\c1ccc2c(c1)OCO2	5.3 µM	0.34 µM	-43.5%	0.65 µM	0.91 µM	7.4	0.25 µM	0.26 µM	1.3 µM	Non-Toxic	0.22 µM	6.4 µM	0.36	> 10 µM	0.9 µM	–	–
CCCSC1=N/C(=C\c2ccc3c(c2)OCO3)C(=O)N1C	> 10 µM	0.34 µM	37.2%	0.62 µM	0.62 µM	6.2	0.33 µM	0.022 µM	2 µM	Non-Toxic	0.064 µM	2 µM	-1.36	> 10 µM	0.32 µM	–	–
O=C1NC(N2CCCC2)=N/C1=C\c1ccc2c(c1)OCO2	3.2 µM	0.63 µM	-59.1%	2.3 µM	0.93 µM	5	0.93 µM	0.38 µM	6.2 µM	Non-Toxic	0.6 µM	1.5 µM	0.05	1.2 µM	2.3 µM	–	–
O=C1NC(N2CCC(N3CCCCC3)CC2)=N/C1=C\c1ccc2c(c1)OCO2	> 10 µM	1.1 µM	-51.1%	4.4 µM	5.2 µM	7.1	1.4 µM	1.4 µM	6.2 µM	Non-Toxic	0.92 µM	7.6 µM	0.42	> 10 µM	3.2 µM	–	–
CSC1=N/C(=C\c2ccc3c(c2)OCO3)C(=O)N1	2.4 µM	0.11 µM	-23%	0.33 µM	0.41 µM	5.9	0.08 µM	0.08 µM	1.8 µM	Non-Toxic	0.073 µM	1.2 µM	0.13	2.2 µM	0.25 µM	–	–
O=C1NC(N2CCOCC2)=N/C1=C\c1ccc2c(c1)OCO2	5.6 µM	0.44 µM	-51%	1.7 µM	1.9 µM	6.5	0.41 µM	0.29 µM	6.5 µM	Non-Toxic	0.43 µM	2.4 µM	0.63	1.1 µM	1.5 µM	–	–
CCSC1NC(=O)/C(=C/c2ccc3c(c2)OCO3)N1C (stereo not drawn)	–	–	-10.7%	–	–	6.5	–	–	–	Non-Toxic	–	–	0.23	–	–	–	–
CCSC1=N/C(=C\c2ccc3c(c2)OCO3)C(=O)N1C	2.1 µM	0.24 µM	-0.7%	0.98 µM	0.3 µM	6.8	0.34 µM	0.11 µM	1.1 µM	Non-Toxic	0.12 µM	2.1 µM	-0.99	> 10 µM	0.42 µM	–	–
Cn1cc(Cc2ccc3c(c2)OCO3)nc1N	> 10 µM	> 10 µM	8.9%	–	> 10 µM	5.3	> 10 µM	3 µM	–	Non-Toxic	3.2 µM	–	0.38	–	> 10 µM	–	–
O=C1NC(Nc2ccccc2)=N/C1=C\c1ccc2c(c1)CCO2	1.2 µM	0.032 µM	–	0.088 µM	0.24 µM	10.2	0.041 µM	0.019 µM	> 10 µM	Non-Toxic	0.022 µM	3.2 µM	–	1.1 µM	0.12 µM	96.4%	7 µM
O=C1NC(N2CCCCC2)=N/C1=C\c1ccc2c(c1)OCO2	4.5 µM	0.13 µM	-58.4%	0.44 µM	0.53 µM	6.8	0.22 µM	0.25 µM	2.6 µM	Non-Toxic	0.24 µM	0.88 µM	0.68	0.76 µM	1.3 µM	–	–
O=C1NC(Nc2ccc(O)c(F)c2)=N/C1=C\c1ccc2c(c1)OCO2	0.4 µM	0.012 µM	-5.6%	0.023 µM	0.17 µM	18.2	0.011 µM	0.019 µM	0.55 µM	Non-Toxic	0.016 µM	0.61 µM	–	0.32 µM	0.12 µM	–	13 µM
O=C1NC(Nc2ccc(F)cc2)=N/C1=C\c1ccc2c(c1)OCO2	> 10 µM	0.028 µM	–	0.1 µM	0.93 µM	4.9	0.035 µM	0.05 µM	8.8 µM	Non-Toxic	0.062 µM	9.3 µM	–	8.8 µM	0.26 µM	76.4%	3.6 µM
O=C1OC(Nc2ccccc2)=N/C1=C\c1ccc2c(c1)OCO2	–	–	-37.5%	–	–	6.2	–	–	–	Non-Toxic	–	–	-0.18	–	–	–	–
COc1ccc(NC2=N/C(=C\c3ccc4c(c3)OCO4)C(=O)N2)cc1	> 10 µM	0.11 µM	–	0.27 µM	6 µM	5.9	0.13 µM	0.13 µM	> 10 µM	Non-Toxic	0.14 µM	–	0.5	> 10 µM	7.5 µM	50.5%	–
